Test [1] concerns the target T1, PPIP5K2^1-366 (human PPIP5K2 kinase domain) (Homo sapiens, UniProt O43314).
T1 construct: one comprised residues 1–366; made in house
T1 sequence (O43314 1-366): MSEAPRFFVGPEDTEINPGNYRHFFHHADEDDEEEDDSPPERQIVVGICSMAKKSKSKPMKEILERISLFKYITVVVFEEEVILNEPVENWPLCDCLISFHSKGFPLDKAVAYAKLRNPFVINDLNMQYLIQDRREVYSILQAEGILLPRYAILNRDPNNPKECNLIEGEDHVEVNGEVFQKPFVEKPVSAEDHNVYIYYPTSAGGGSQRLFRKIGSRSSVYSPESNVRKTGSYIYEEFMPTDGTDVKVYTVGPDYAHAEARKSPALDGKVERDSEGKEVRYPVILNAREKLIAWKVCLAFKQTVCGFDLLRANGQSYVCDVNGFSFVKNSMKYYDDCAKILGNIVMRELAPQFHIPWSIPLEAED
The test is described as follows: Isothermal titration calorimetry of ligand binding to PPIP5K2KD. Conditions: ITC, 25°C; for ΔH / ΔS: 7.5 μM PPIP5K2^1-366, 75 μM ligand, pH 7.2; for Kd: 7.5 μM PPIP5K2^1-366 in cell, 75 μM ligand in syringe, pH 7.2, 1mM AMP-PNP, 1mM MgCl2, read-out: Kd (apparent).
From the text: We next used isothermal titration calorimetry (ITC) to analyze the interactions of PPIP5K2^KD with 5PP-IP5 and each of the four analogs studied herein (Figure 5A-E). […] At the same time, the enthalpic gain for binding was largest for 5PCF2Am-IP5 and 5PA-IP5. A possible explanation may be that these two ligands are less strongly hydrated, due to their lower overall charge. The enthalpic cost for dehydration of 5PCF2Am-IP5 and 5PA-IP5 is therefore lower, compared to the other molecules, resulting in a higher enthalpic gain overall. A less strongly hydrated ligand will also release fewer water molecules upon binding, consistent with the lower entropic gains.
Figure 5 Analysis of ligand binding to the PPIP5K2^KD by ITC. Test solutions contained 7.5 μM of PPIP5K2^1-366 in the sample cell and 75 μM ligand in the syringe. Other details are provided in the Methods Section. Representative thermograms (1 of 3 replicates) are shown for titration of either (A) 5PP-IP5; (B) 5PCPF2P-IP5; (C) 5PCP-IP5; (D) 5PCF2Am-IP5; (E) 5PA-IP5. (F) Corresponding thermodynamic data. TEXT PRINTED IN THE PICTURE: (F) 5PP-: Kd (nM): 123 ± 13; ΔH (kJ/mol): -26 ± 2; ΔS (kJ/mol/deg): 0.046 ± 0.008 | (F) 5PCF2-: Kd (nM): 246 ± 10; ΔH (kJ/mol): -16 ± 1; ΔS (kJ/mol/deg): 0.072 ± 0.005 | (F) 5PCP-: Kd (nM): 100 ± 10; ΔH (kJ/mol): -20 ± 2; ΔS (kJ/mol/deg): 0.067 ± 0.016 | (F) 5PCF2-Am-: Kd (nM): 90 ± 13; ΔH (kJ/mol): -38 ± 2; ΔS (kJ/mol/deg): 0.007 ± 0.004 | (F) 5PA-: Kd (nM): 90 ± 7; ΔH (kJ/mol): -36 ± 3; ΔS (kJ/mol/deg): 0.013 ± 0.008 […]
(§1) Calorimetry experiments were performed using a MicroCal PEAQ-ITC (Malvern Panalytical) with 7.5 μM recombinant PPIP5K21-366 in the sample cell and 75 μM of ligand in the syringe, each of which was maintained at 25°C in buffer containing 20 mM HEPES, pH 7.2, 150 mM KCl, 0.05 mM EDTA, 1mM AMP-PNP, 1mM MgCl2 as indicated. The sample cell (volume = 204 μL) and the syringe were cleaned before each run. Thermograms were constructed from 13 injections, each of which involved 3 μL of ligand delivered for 6 s, with an equilibration time of 150-300 s between each injection. The stirring speed was set to 750 rpm. Data were fitted to a single binding site model using the analysis software provided by the manufacturer. At least three runs were performed for each condition.
Protein expression and purification.
Throughout the main text, PPIP5K2KD is deployed as an abbreviation for the human PPIP5K2 kinase domain. However, two different constructs were utilized, as described in the figure legends and within the Methods section below: one comprised residues 1–366 (PPIP5K21-366) and the other comprised residues 41–366 (PPIP5K241-366). Both constructs were expressed and purified as described previously.[6] The human DIPP1 construct (residues 1-148) was expressed and purified as described in [7]. […]
The molecular graphics representations wer e prepared with the program PyMol (Schrödinger, LLC). Atomic coordinates an d structure factors have been deposited with the Protein Data Bank with accession codes 8G9C, 8G9D, 8G9E.
PPIP5K2KD reverse kinase assay […]
Isothermal titration calorimetry
as §1, with “PPIP5K21–366” for “PPIP5K21-366”, “2 04 µL)” for “204 μL)”, “µL” for “μL”, “150 -300” for “150-300”, “cond ition. […]” for “condition.”
(In general: In ITC the heat of successive injections is recorded.)

The target in test [2] is T1, PPIP5K2^1-366 (human PPIP5K2 kinase domain). Conditions: published value; read-out: IC50, inhibition of the reverse kinase activity of PPIP5K2KD; cited from earlier work.

As usually defined, the IC50 is the point on the concentration scale where inhibition reaches its midpoint.

`O=P(O)(O)O[C@H]1[C@@H](OP(=O)(O)O)[C@H](OP(=O)(O)O)[C@@H](OP(=O)(O)OP(=O)(O)O)[C@H](OP(=O)(O)O)[C@H]1OP(=O)(O)O` [5PP-IP5, 5-diphosphoinositol pentakisphosphate]: in test [1], the ΔH was -6.21 ± 0.48 kcal/mol, the ΔS amounted to 0.046 ± 0.008 kJ/mol/deg and the Kd came to 123 nM.

Consider `O=C(CP(=O)(O)O)O[C@@H]1[C@@H](OP(=O)(O)O)[C@H](OP(=O)(O)O)[C@H](OP(=O)(O)O)[C@H](OP(=O)(O)O)[C@H]1OP(=O)(O)O` [5PA-IP5], for which, in test [1], the ΔH is -8.6 ± 0.72 kcal/mol, the ΔS amounted to 0.013 ± 0.008 kJ/mol/deg and the Kd amounted to 90 ± 7 nM. Moreover, the IC50 in test [2] is 129 nM.

Regarding `O=C(N[C@@H]1[C@@H](OP(=O)(O)O)[C@H](OP(=O)(O)O)[C@H](OP(=O)(O)O)[C@H](OP(=O)(O)O)[C@H]1OP(=O)(O)O)C(F)(F)P(=O)(O)O` [5PCF2Am-IP5], in test [1], the ΔH was -9.08 ± 0.48 kcal/mol, the ΔS was 0.007 ± 0.004 kJ/mol/deg and the Kd worked out at 90 ± 13 nM.

These data come from paper PMC7615343, “Fluorination Influences the Bioisostery of Myo-Inositol Pyrophosphate Analogs” (Chemistry (Weinheim an der Bergstrasse, Germany), 2023).
